Results reported in article PMC8179358, “An explicitly designed paratope of amyloid-β prevents neuronal apoptosis in vitro and hippocampal damage in rat brain” (Chemical Science, 2020).

Experiments:
Bax, Bcl-2 = assay: Western blot, Bax and Bcl-2; format: cell-based, human; conditions: Aβ40 alone (10 μM), compared to healthy cells
Description: (§1) e. Measurement of intracellular calcium (Ca 2+)
(§2) Ca2+sensitive dye Fura-2AM was used to measure free intracellular Ca2+level in SH-SY5Y cell suspension by the previously described method.12 Following treatment with the respective drug, Fura-2 AM (Cayman, USA) at a concentration of 5 µM was added to the culture medium and incubated at 37°C for 45 min. Next, Krebs-Ringer-HEPES (KRH) buffer (135mM NaCl, 5mM KCl, 1mM MgSO4, 0.4mM KH2PO4, 1mM CaCl2, 5.5mM glucose, 20mM HEPES, pH 7.4) was used to wash each plate twice containing (1×10^6cells). Fluorescent microplate reader (FLX 800, Biotek, USA) was used to measure the fluorescence intensity with an excitation and emission spectra of […], respectively. Results are Mean±SEM of quadruplicate measurements from three separate experiments and expressed in the increase in percent relative fluorescent unit (RFU) relative to the baseline reading.
(§3) Western blot analysis was performed to measure Bax, Bcl-2, cleaved Caspase 9 and cleaved Caspase 3, pro and anti-apoptotic proteins expression. About 5× 10^6 cells were washed with PBS twice following […]
(§4) overnight. […] The optical density (OD) value of each band was analyzed by the electrophoresis image analysis system (Smartview 2001, S/N: SV-0002202, Japan) and normalized against the corresponding β-actin band. […]

cleaved caspase-3 = assay: Western blot, cleaved caspase-3; format: cell-based, human
Description: as §1, §2, §3, §4

Substance: Aβ40: commercially available Aβ40 peptide
- ratio of Bax/Bcl-2 expression (Bax, Bcl-2): ~3.2 fold
- caspase-3 activation by Aβ40 alone (cleaved caspase-3): leads to activation of caspase-3 directed DNA breakage, nuclear chromatin condensation, and neurocellular apoptosis
